Measurements: ChEMBL document CHEMBL1201862, “PubChem BioAssay data set” (2004)
The source made the active and inactive calls.

What was measured:
[1] = target: 72 kDa type IV collagenase (Homo sapiens, UniProt P08253); test: Dose Response validation of uHTS RPN11 inhibitor hits using a MMP-2 Fluorescence assay.; format: functional
Prothrombin = Prothrombin (Bos taurus, UniProt P00735); test: thrombin inhibition, dose response, biochemical, fluorescence polarization, uHTS hits (AID 602369); format: functional
[2] = target: 26S proteasome non-ATPase regulatory subunit 14 (Homo sapiens, UniProt O00487); test: inhibition of proteasome subunit RPN11 – biochemical, fluorescence polarization, uHTS hits, confirmation (AID 602368); format: functional
Chain of 26S proteasome non-ATPase regulatory subunit 14 (O00487 whole entry, the tested form may be a part): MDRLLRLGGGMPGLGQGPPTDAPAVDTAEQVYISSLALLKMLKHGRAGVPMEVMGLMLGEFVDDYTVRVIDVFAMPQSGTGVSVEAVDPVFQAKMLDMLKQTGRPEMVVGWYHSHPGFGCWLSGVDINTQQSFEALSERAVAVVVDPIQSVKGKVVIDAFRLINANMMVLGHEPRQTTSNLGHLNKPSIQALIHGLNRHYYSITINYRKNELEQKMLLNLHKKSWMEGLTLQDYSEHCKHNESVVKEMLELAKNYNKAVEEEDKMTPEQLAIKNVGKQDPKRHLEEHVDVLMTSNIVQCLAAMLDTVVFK

[3] = inhibitors of HIV Env-driven cell fusion, dose response, cherry-pick (AID 652057); format: functional, cell-based
[4] = off-target signal loss in HeLa-CEM21 co-culture – HeLa F-luc CTL cells, cherry-picked, counter-screen for HIV-1 Env fusion inhibitor project, dose response (AID 652040); format: functional, cell-based;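 further: potency for signal decrease marking cytotoxic or nonspecific inhibition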
[5] = inhibitors of clade B AD8 Env fusion, dose response, cell-based, cherry-pick (AID 652062); format: functional;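 further: luciferase signal from cell-cell fusion driven by HIV-1 clade B AD8 Env; potency is for inhibitors of fusion seen as a drop in luminescence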
[6] = ZM109 Env clade C HIV-1 fusion inhibitors, dose response, HeLa effector, CEM target cells, luciferase, cherry-pick (AID 652058); format: functional, cell-based
[7] = target: T1, Sentrin-specific protease 1 (Homo sapiens, UniProt Q9P0U3); test: Dose response confirmation of small molecule inhibitors of the catalytic domain of the SUMO protease, SENP1 in a FRET assay.; format: functional; details: read-out: IC50_Mean
T1 sequence (Q9P0U3 whole entry): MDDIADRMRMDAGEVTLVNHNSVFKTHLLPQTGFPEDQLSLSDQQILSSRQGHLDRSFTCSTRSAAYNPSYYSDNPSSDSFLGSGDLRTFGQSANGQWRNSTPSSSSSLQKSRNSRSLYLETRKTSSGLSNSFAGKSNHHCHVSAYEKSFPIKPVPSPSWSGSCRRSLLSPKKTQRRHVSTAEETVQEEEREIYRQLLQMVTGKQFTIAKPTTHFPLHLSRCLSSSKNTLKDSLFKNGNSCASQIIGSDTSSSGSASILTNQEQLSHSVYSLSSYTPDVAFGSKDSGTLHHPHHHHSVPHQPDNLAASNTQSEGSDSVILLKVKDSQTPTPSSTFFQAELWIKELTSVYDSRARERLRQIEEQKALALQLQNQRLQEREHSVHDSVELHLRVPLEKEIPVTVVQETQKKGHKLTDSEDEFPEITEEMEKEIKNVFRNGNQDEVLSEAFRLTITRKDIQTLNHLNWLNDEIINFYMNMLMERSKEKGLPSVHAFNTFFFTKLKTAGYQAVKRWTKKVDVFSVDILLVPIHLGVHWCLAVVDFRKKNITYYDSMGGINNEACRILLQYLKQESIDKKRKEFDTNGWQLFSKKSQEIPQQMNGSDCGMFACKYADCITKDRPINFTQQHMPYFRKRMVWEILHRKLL

[8] = target: T1, Sentrin-specific protease 1; test: potency of human SENP1 inhibitors, dose response, biochemical, kinetic FRET (AID 651697); format: functional; details: read-out: IC50_Mean
[9] = cytotoxicity toward DRD oncogenic fibroblasts, dose response, cell-based, non-viral oncogenic, luminescence (AID 1934); format: functional; details: Homo sapiens
BJ [10] = test: cytotoxicity toward BJ-TERT fibroblasts, dose response, cell-based, RAS-independent, luminescence (AID 1933); format: functional; details: Homo sapiens
Galanin receptor type 3 = target: T2, Galanin receptor type 3 (Homo sapiens, UniProt O60755); test: Fluorescence-based cell-based primary high throughput dose response assay to identify antagonists of the Galanin Receptor 3 (GalR3).; format: functional
T2 sequence (O60755 whole entry): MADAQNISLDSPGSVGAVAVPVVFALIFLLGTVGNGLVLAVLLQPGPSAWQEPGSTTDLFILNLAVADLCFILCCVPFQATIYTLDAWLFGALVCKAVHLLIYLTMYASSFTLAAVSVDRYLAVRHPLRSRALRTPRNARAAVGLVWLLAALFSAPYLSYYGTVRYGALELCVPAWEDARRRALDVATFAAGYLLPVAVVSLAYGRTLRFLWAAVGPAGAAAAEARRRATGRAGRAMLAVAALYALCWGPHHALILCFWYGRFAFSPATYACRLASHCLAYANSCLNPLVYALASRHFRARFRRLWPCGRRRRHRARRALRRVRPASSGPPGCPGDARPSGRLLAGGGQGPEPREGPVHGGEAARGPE

INS1 = test: beta cell apoptosis inhibitors, cytokine rescue, dose response, luminescence, retest (AID 449756); format: functional, cell-based; details: Rattus norvegicus;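 further: cell death triggered by IL-1 beta plus TNF-alpha plus IFN-gamma mixture; protective hits raise ATP signal compared with cytokine alone wells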
cells [11] = format: functional, cell-based; details: HEK-CNG
BJ [12] = test: cells; format: functional, cell-based; details: Homo sapiens
BJ [13] = test: cytotoxicity toward BJ-TERT-LT-ST fibroblasts, dose response, cell-based, RAS-independent, luminescence (AID 1935); format: functional; details: Homo sapiens;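 further: BJ fibroblasts immortalized with TERT plus LT and ST oncogenes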
cells [14] = format: functional
A-375 [15] = test: MITF: Counter assay: A375 proliferation Measured in Cell-Based System Using Plate Reader - 2084-03_Inhibitor_Dose_DryPowder_Activity. [Related pubchem assays (depositor defined):AID488944]; format: functional; details: Homo sapiens
A-375 [16] = test: A375 melanoma cell viability reduction, dose response, counter-screen for MITF modulator project, cherry-pick samples, set 2 (AID 540335); format: functional, cell-based; details: Homo sapiens
[17] = target: T3, Small ubiquitin-related modifier 1 (Homo sapiens, UniProt P63165); test: inhibitors of SUMO1 peptide binding, dose response, biochemical, fluorescence polarization, uHTS hits (AID 624382); format: functional; details: read-out: IC50_Mean
T3 sequence (P63165 whole entry): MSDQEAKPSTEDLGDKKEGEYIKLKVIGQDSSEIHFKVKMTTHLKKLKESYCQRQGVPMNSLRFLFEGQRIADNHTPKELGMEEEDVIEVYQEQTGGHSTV

[18] = target: T3, Small ubiquitin-related modifier 1; test: inhibitors of SUMO1 partner interactions, dose response, biochemical, FRET (AID 624383); format: functional; details: read-out: IC50_Mean
Cysteine protease ATG4B = target: T4, Cysteine protease ATG4B (Homo sapiens, UniProt Q9Y4P1); format: functional;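 further: Fluorescence-based dose-response confirmation assay measuring inhibition of ATG4B activity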
T4 sequence (Q9Y4P1 whole entry): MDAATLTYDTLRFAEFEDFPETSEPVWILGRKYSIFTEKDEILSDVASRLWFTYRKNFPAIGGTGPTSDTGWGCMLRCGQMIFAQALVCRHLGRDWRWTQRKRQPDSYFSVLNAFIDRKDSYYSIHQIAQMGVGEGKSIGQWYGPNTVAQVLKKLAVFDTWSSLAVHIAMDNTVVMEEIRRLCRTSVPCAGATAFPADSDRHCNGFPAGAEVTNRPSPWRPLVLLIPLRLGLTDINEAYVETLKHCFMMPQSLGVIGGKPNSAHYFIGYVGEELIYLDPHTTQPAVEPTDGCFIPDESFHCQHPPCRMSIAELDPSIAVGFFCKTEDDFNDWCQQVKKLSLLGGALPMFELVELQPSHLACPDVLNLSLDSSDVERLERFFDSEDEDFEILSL

Phospholipase A2 = Phospholipase A2 (Homo sapiens, UniProt P04054); format: functional;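 further: confirmatory dose-response counterscreen on phospholipase A2, testing hits that came from an ultra-high-throughput screen for ATG4B inhibitors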
Chain of Phospholipase A2 (P04054 whole entry, the tested form may be a part): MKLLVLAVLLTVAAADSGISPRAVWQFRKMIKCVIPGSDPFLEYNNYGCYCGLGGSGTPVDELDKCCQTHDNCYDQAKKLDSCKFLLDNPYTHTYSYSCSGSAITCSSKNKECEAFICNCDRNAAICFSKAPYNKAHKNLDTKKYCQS

[19] = target: T5, RNA-binding protein pos-1 (Caenorhabditis elegans, UniProt G5EF15); test: inhibitors of POS-1/mex-3 RNA binding, dose response, biochemical, fluorescence polarization (AID 1964);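 further: purified POS-1 fused to maltose binding protein made in E. coli; potency of compounds blocking POS-1 binding to fluorescent RNA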
T5 sequence (G5EF15 whole entry): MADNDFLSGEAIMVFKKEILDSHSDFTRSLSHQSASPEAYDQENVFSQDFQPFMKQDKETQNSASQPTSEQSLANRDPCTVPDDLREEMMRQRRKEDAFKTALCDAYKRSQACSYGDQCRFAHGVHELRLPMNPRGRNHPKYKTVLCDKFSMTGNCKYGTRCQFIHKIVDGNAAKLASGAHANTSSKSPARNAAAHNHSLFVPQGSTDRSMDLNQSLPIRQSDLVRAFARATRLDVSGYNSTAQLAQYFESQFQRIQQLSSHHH

[20] = target: T6, Zinc finger protein mex-5 (Caenorhabditis elegans, UniProt Q9XUB2); test: MEX-5/TCR-2 RNA interaction inhibitors, dose response, biochemical, C. elegans, fluorescence polarization (AID 1960)
T6 sequence (Q9XUB2 whole entry): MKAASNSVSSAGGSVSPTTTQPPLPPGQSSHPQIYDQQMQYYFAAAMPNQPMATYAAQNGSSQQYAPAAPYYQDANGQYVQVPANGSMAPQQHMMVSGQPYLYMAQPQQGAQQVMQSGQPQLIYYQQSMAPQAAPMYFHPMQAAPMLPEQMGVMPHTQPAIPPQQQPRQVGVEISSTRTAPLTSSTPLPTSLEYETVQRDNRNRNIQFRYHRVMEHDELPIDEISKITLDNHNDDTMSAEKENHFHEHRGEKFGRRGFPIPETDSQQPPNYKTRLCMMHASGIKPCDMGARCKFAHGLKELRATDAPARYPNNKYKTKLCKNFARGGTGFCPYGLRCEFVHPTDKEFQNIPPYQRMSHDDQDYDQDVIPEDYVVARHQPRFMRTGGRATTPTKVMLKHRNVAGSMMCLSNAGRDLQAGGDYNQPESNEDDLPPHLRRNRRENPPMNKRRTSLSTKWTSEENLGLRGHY

[21] = growth suppression of beta-catenin-knockout colon cells, dose response, cell-based, HCT116, human colon tumor (AID 1045); format: functional;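 further: HCT116 colon tumor cells with beta catenin knocked out; cells exposed to compound for 60 hours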
[22] = growth suppression of PTEN-null colon cells, dose response, cell-based, HCT116 PTEN knockout (AID 1047); format: functional;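 further: HCT116 colon tumor cells with PTEN knocked out; cells exposed to compound for 60 hours before readout; potency for loss of cell viability measured by luminescence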
[23] = Luminescence Cell-Based Dose Retest to Confirm Inhibitors of Cancer Stem Cells. [Related pubchem assays (depositor defined):AID2717, AID2721]; format: functional; details: Homo sapiens
[24] = target: T7, Endoribonuclease toxin MazF (Escherichia coli K-12, UniProt P0AE70); test: fluorescent RNA oligo signal without MazF, dose response, counter-screen for MazEF activator project, biochemical, fluorescence, single-stranded RNase substrate (AID 588502); format: functional
T7 sequence (P0AE70 whole entry): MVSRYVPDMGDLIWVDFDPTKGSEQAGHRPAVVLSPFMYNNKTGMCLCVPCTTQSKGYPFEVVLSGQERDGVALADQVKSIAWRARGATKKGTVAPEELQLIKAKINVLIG

[25] = target: T7, Endoribonuclease toxin MazF; test: MazF toxin RNase activators, dose response, biochemical, fluorescence, single-stranded RNA substrate, uHTS hits (AID 588481); format: functional
[26] = microbe, parasite or virus in culture; format: functional; details: Mycobacterium tuberculosis

Chain of 72 kDa type IV collagenase (P08253 whole entry): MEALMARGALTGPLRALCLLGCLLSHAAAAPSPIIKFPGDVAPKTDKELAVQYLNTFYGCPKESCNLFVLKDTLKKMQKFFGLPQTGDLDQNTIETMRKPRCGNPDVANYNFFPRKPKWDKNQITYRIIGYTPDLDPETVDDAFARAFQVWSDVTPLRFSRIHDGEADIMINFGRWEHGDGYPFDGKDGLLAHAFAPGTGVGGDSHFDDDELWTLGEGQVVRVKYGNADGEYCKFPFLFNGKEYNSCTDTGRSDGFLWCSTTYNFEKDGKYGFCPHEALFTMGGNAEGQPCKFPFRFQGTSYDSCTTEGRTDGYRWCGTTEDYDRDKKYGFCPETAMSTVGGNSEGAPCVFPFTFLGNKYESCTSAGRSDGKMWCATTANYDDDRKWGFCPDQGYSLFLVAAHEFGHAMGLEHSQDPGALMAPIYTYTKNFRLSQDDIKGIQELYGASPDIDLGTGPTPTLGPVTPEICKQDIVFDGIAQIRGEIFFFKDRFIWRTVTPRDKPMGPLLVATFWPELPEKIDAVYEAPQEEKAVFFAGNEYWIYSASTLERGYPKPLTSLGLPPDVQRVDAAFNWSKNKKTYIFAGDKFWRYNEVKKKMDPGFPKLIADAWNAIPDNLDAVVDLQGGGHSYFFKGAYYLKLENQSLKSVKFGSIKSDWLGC

SMILES: CC1=Nc2ccccc2/C1=C\c1nc(-c2ccccc2)oc1O
- IC50 [1]: > 100 µM (inactive)
- IC50 (Prothrombin): 7.22 µM (active)
- IC50 [2]: 4.18 µM (active)

SMILES: CC[C@@]1(C(=O)OC)N[C@H](CN(C)C(=O)c2ccc(C(C)(C)C)cc2)[C@@H]2C(=O)N(Cc3ccccc3)C(=O)[C@@H]21
- AC50 [3]: 6.06 µM (active)
- AC50 [4]: 18.3 µM (active)
- AC50 [5]: 10.1 µM (active)
- AC50 [6]: 8.17 µM (active)

SMILES: O=C1C=C(c2cccc(Cl)c2O)C[C@@H](c2ccc(Cl)cc2)C1
- IC50 [7]: 1.15 µM (active)
- IC50 [8]: 2.66 µM (active)

SMILES: CC(C)(C)c1cc([N+](=O)[O-])cc(C(C)(C)C)c1O
- EC50 [9]: 22 µM (active)
- EC50 (BJ [10]): > 150 µM (not active)
- IC50 (Galanin receptor type 3): 2 µM (active)
- AC50 (INS1): 4.45 µM (active)
- EC50 (cells [11]): > 29.9 µM (inactive)
- EC50 (BJ [12]): > 150 µM (inconclusive)
- EC50 (BJ [13]): > 75 µM (inconclusive)

SMILES: O=C(N/N=C/C=C/c1ccccc1)c1ccccn1
- IC50 (cells [14]): 11.2 µM (active)
- AC50 (A-375 [15]): > 35 µM (active)
- AC50 (A-375 [16]): > 35 µM (active)

SMILES: CCOC(=O)C1=C(COc2ccccc2)NC(=O)NC1c1ccc(Cl)cc1 (stereo unspecified)
- IC50 [17]: > 66.6 µM (inactive)
- IC50 [18]: 15.7 µM (active)

SMILES: CCCc1ccc(OC(=O)c2cccs2)cc1
- IC50 (Cysteine protease ATG4B): 10.7 µM (active)
- IC50 (Phospholipase A2): 10.2 µM (active)

SMILES: CC(C)Cn1c(N)c(C(=O)COC(=O)/C=C/c2ccccc2)c(=O)n(C)c1=O
- IC50 (Galanin receptor type 3): > 29.9 µM (inactive)
- EC50 (cells [11]): > 29.9 µM (inactive)

SMILES: Cc1cc(/C=C(/C#N)c2nc3ccccc3[nH]2)c(C)n1-c1ccccc1C(=O)O
- IC50 [1]: > 100 µM (inactive)
- IC50 (Prothrombin): 25.5 µM (active)
- EC50 [19]: > 300 µM (not active)
- IC50 [2]: 26.2 µM (active)
- EC50 [20]: > 300 µM (not active)

SMILES: Clc1ccccc1CN1CCN(c2ccccc2Cl)CC1
- IC50 (Cysteine protease ATG4B): 11.5 µM (active)
- IC50 (Phospholipase A2): 6.52 µM (active)

SMILES: C=C(C)Cn1c(SCC(=O)N/N=C/c2c(O)ccc3ccccc23)nc2ccccc2c1=O
- EC50 [21]: 16.6 µM (active)
- IC50 (Cysteine protease ATG4B): 13.3 µM (active)
- EC50 [22]: 19.5 µM (active)
- IC50 (Phospholipase A2): 7.98 µM (active)
- AC50 [23]: 3.05 µM (active)

SMILES: c1cc(Nc2cccc3nccnc23)c2nccnc2c1
- EC50 [24]: > 99 µM (inactive)
- EC50 [25]: > 99 µM (inactive)
- IC50 [7]: 24.5 µM (inactive)
- CC50 [26]: 31.7 µM (active)
- IC50 [8]: 25.6 µM (inactive)

SMILES: CC(C)C(NC(=O)OCc1ccccc1)C(=O)OCC(=O)N1CCCCC1 (stereo unspecified)
- AC50 (A-375 [15]): > 35 µM (active)
- AC50 (A-375 [16]): > 35 µM (active)

SMILES: O=C(CSc1nc2ccccc2c(=O)n1-c1ccc(Cl)cc1)N/N=C/C=C/c1ccccc1[N+](=O)[O-]
- IC50 (Cysteine protease ATG4B): 8.92 µM (active)
- IC50 (Phospholipase A2): 1.18 µM (active)
